The source of these data is patent US20250388756A1, “NOVEL FLUORESCENT COMPOUND, AND LIPID BILAYER DYEING METHOD AND ENDOCYTOSIS DETECTION METHOD USING SAID COMPOUND” (DOJINDO LABORATORIES, priority 2020, published 2025).

In data set [1] the test system is HeLa cells. Kind of data set: Cell staining test (confocal laser microscope). In kind it is cell-based. Conditions: FIG. 8. How it is done: HeLa cells were seeded onto μ-slide 8 well plates (ibidi) and cultured overnight in an incubator (37° C., 5% CO2, MEM medium (containing 10% fetal bovine serum and 1% penicillin/streptomycin)).
The nature of data set [2]: Effect of pH on fluorescence intensity. The data set is classed as physicochemical. To be noted: 1 μmol/L in 1:1 mixture of buffer (pH 7.4, 6.5, 4) and DMSO; FIG. 7. How it is done: Compound (3) was added to a 1:1 mixture of PBS (pH 7.4), Tris-HCl buffer (pH 6.5), phthalate buffer (pH 4) and DMSO to a final concentration of 1 μmol/L and the fluorescence spectrum was measured.

The test system of data set [3] is HeLa cells. Kind of data set: Endosome staining test (confocal laser microscope). In kind it is cell-based. To be noted: endosomes enlarged by wortmannin 100 nM, 30 minutes at 37° C., FIG. 9. On the procedure: HeLa cells were seeded on μ-slide 8 well plates (ibidi) and cultured overnight in an incubator (37° C., 5% CO2 presence, MEM medium (containing 10% fetal bovine serum and 1% penicillin/streptomycin)). The medium was removed and wortmannin (100 nM: a PI-3 kinase inhibitor that hypertrophies early endosomes) diluted in MEM medium Various fluorescent compounds (Compound (3), pHrodo Dex (Thermofisher), FM1-43 (Molecular Probe)) diluted with MEM medium were added and incubated for 30 minutes at 37° C. The supernatant was removed, and the cells were incubated at 37° C. for 30 minutes. The supernatant was removed, replaced with MEM medium and observed with a confocal laser microscope. In addition, instead of adding fluorescent compounds, the same experiment was performed using HeLa cells expressing Rab5-RFP (cDNA encoding a fusion protein in which a fluorescent protein is fused to an endosomal membrane-specific protein) before addition of wortmannin. The same experiments were also performed on the control group (CTRL) without adding wortmannin.

As for `O=C1c2ccc3c4cccc5cccc(c6ccc(c2c36)C(=O)N1CCCS(=O)(=O)O)c54` [Compound (1)], the “localisation of fluorescent compound after leaving overnight (retention in cell membrane)” value in data set [1] is on record as “remained in the cell membrane”.
Same read-out and setting: in the case of `CCCCCN1C(=O)c2ccc3c4cccc5c(N6CCN(CCCS(=O)(=O)O)CC6)ccc(c6ccc(c2c36)C1=O)c54` [Compound (2)] it was “remained in the cell membrane”.
Regarding `CCCCCN1C(=O)c2cccc3c(N4CCN(CCCS(=O)(=O)O)CC4)ccc(c23)C1=O` [Compound (3)], the “change of fluorescence intensity with pH” value in data set [2] is recorded as “marked increase in fluorescence intensity was observed with decreasing pH”. Besides, in data set [3], the “staining of endosomes (membrane versus contents)” value is “only the endosomal membrane was specifically stained”.
